Consider eight compounds from US20140050778A1, “NUCLEIC ACID BINDING COMPOUNDS, METHODS OF MAKING, AND USE THEREOF” (UNIVERSITY OF ROCHESTER, priority 2010, published 2014).

What all share (assay): SPR binding to immobilized biotinylated RNA
(Surface plasmon resonance follows binding to a sensor surface in real time, without labels.)

The test system of test [1] is (CCUG)10 RNA (SEQ ID NO: 4). To be noted: for Residence time (t1/2) for compound binding to RNA / Off-rates (koff) / On-rates (kon): (CCUG)10. On the procedure:
(§1) SPR binding measurements were performed on a Biacore-X instrument (Biacore, Inc., Uppsala, Sweden) with two flow channels (FC1 and FC2). 5′-Biotinylated-RNA sequences, with a C6 linker separating the biotin label from the RNA (Integrated DNA Technologies Inc.) were immobilized on streptavidin (Rockland Immunochemicals) functionalized carboxylmethyl dextran coated sensor chips (CM5, G.E. Healthcare) using EDC/NHS (Advanced ChemTech) coupling chemistry. Filtered (0.2μ), degassed and autoclaved HBS-N buffer (0.01M Hepes, pH=7.4, 0.15 M NaCl) was employed as sample and as running buffer for all SPR experiments. A typical protocol for an experiment is as follows: A CM5 sensor chip was allowed to equilibrate to room temperature and then docked into the instrument. Following priming with running buffer, FC1 and FC2 were conditioned by manual injection of 20 μL aqueous NaOH (50 mM) at a flow rate of 30 μL/min. This was repeated 3 times followed by a wash command. Next, the carboxyl groups on the sensor chip surface in both flow cells were activated separately by injecting 60 μL of freshly prepared 1:1 mixture of EDC (0.4 M) and NHS (0.1 M) at a 5 μL/min flow rate followed by a wash. […] After washing, the surface was deactivated with 60 μL injection of ethanolamine (1M, pH=8.5) at 5 μL/min. The flow cells were primed, and the streptavidin surface in FC1 alone was blocked with 30 μL of biotin (20 μM in HBS-N) at 5 μL/min. The RNA (200 nM in running buffer, HBS-N) to be immobilized was unfolded by heating above its predicted melting temperature in a heated block for 2 min and then allowed to refold by cooling gradually to room temperature. The RNA was then immobilized in FC2 alone to response units ranging from 200-1000 RU using a 5 μL/min flow rate. Representative sensorgrams for the immobilization procedure is shown in FIGS. 2A-B. Two 20 μL aliquots of NaCl (0.5 M) were injected at a 30 μL/min flow rate to remove non-specifically bound RNA. The level of RNA immobilized was noted when the baseline was stable, usually after repeated buffer injection followed by a “prime” command. Binding measurements were performed by flowing various concentrations of the compounds to be analyzed over the immobilized RNA and recording the reference-subtracted (FC2−FC1) sensorgrams. For kinetic analysis, at least five sensorgrams corresponding to different concentrations of compound (usually ranging from 0.05-1 μM in HBS-N) were obtained using flow rates of either 60 μL/min or 30 μL/min. The experimental sensorgrams were globally fitted to a 1:1 binding equation (Biaevaluation software) to obtain association rates (ka) and dissociation rates ([…]) as well as equilibrium binding constants (KD). To measure the binding stoichiometry (n), the relations in equations (1-3) below were used: […]
(§2) where RUmax is the maximum resonance response unit at saturation, RURNA is the amount RU of RNA immobilized, n is the stoichiometry, MWcompound and MWRNA are molecular weights of compound and RNA respectively, and RUeq represents the resonance response at steady-state (equilibrium). The response units at equilibrium were subjected to Scatchard binding plots of (r/Cfree vs. r).
(§3) The binding characteristics of compounds 3-11 were evaluated against pathogenic CUG^exp RNA and other RNA sequences by SPR. This technique allows the association and dissociation rates (ka and kd), equilibrium binding constants (KD), and the binding stoichiometry (n) to be measured in a label-free format (Liu and Wilson, “Quantitative Analysis of Small Molecule-nucleic Acid Interactions with a Biosensor Surface and Surface Plasmon Resonance Detection,” Methods Mol. Biol. 613:1-23 (2010), which is hereby incorporated by reference in its entirety). […]

The test system of test [2] is (CAG)10 RNA (SEQ ID NO: 5). As to conditions: for Off-rates (koff) / On-rates (kon): SPR. The procedure: as §1, §2, §3
For test [3], the system named is HIV-1 FSS RNA (SEQ ID NO: 7). The procedure: as §1
where RUmax is the maximum resonance response unit at saturation, RURNA is the amount RU of RNA immobilized, n is the stoichiometry, MWcompound and MWRNA are molecular weights of compound and RNA respectively, and RUeq represents the resonance response at steady-state (equilibrium). The response units at equilibrium were subjected to Scatchard binding plots of (r/Cfree vs. r). […]
SPR and fluorescence titration experiments, performed using the protocol described in Examples 3 and 4 above, except using as the target a highly conserved RNA sequence responsible for regulating the production of the Gag-Pol polyprotein via a −1 ribosomal frameshift, which occurs along a “slippery sequence” in gag-pol mRNA (SEQ ID NO: 7). This “frameshift stimulatory sequence” (or “HIV-1 FSS”) consists of an upper stemloop and a lower stem, separated by a purine bulge in the most common types of HIV (FIG. 19). For the fluorescent titration experiments, the upper stemloop of SEQ ID NO: 7 was employed. Cell uptake and toxicity studies were carried out using human fibroblasts according to Example 5 above.

Test [4] deals with (CUG)10 RNA (SEQ ID NO: 3). As to conditions: for Residence time (t1/2) for compound binding to RNA / Off-rates (koff) / On-rates (kon) / apparent KD / ka / kd / Kd: (CUG)10; for sequence selectivity: CUG repeats versus other RNAs. The procedure:
as §1, §2
This technique allows the association and dissociation rates (ka and kd), equilibrium binding constants (KD), and the binding stoichiometry (n) to be measured in a label-free format (Liu and Wilson, “Quantitative Analysis of Small Molecule-nucleic Acid Interactions with a Biosensor Surface and Surface Plasmon Resonance Detection,” Methods Mol. Biol. 613:1-23 (2010), which is hereby incorporated by reference in its entirety).

The subject of test [5] is (CUG)2 RNA (SEQ ID NO: 1). As to conditions: Table 7, SPR. The procedure:
as §1, §2, §3

Test [6] concerns CUG-CAG duplex ("Duplex") (SEQ ID NO: 6). To be noted: Duplex. The procedure: as §1, §2, §3

Where two headings read alike, the source gives them in different places.

For `NCCCC[C@H](NC(=O)[C@H](C/C=C\C[C@H](NC(=O)[C@@H]1CCCN1)C(=O)N[C@@H](CCCCN)C(=O)NCCCN)NC(=O)[C@@H]1CCCN1)C(=O)NCCCN` [Compound 6], the “Residence time (t1/2) for compound binding to RNA” value (from here on “Residence time”) in test [1] was 2.32 s; in test [2] it was 36.09 s; in test [3], 26.96 s; in test [4] it was 19.91 s. For the same compound, the “Off-rates (koff)” value is 0.299 s⁻¹ in test [1] (SPR), 0.0192 s⁻¹ in test [2], 0.0257 s⁻¹ in test [3] (SPR) and 0.0348 s⁻¹ in test [4] (SPR). For the same compound, the “On-rates (kon)” value in test [1] (SPR) came to 13600 M⁻¹ s⁻¹; in test [2], 125000 M⁻¹ s⁻¹; in test [3] (SPR), 221000 M⁻¹ s⁻¹; in test [4] (SPR), 132000 M⁻¹ s⁻¹. Also, the “apparent KD” value in test [4] (SPR) is on record as “modest affinity”. Further, the sequence selectivity result in test [4] (SPR) was “neither displayed any selectivity”.

As for `CCc1nc2cc3ccccc3cc2cc1C(=O)N1CCC[C@H]1C(=O)N(C)[C@@H](C/C=C\C[C@@H](C(=O)N[C@@H](CCCCN)C(=O)NCCCN)N(C)C(=O)[C@@H]1CCCN1C(=O)c1cc2cc3ccccc3cc2nc1CC)C(=O)N[C@@H](CCCCN)C(=O)NCCCN` [21 (Z)], in test [4] (Table 7, SPR), the ka entry is “ka = 1.6 ± 0.3E+4/M * s” and the kd result was “kd = 1.6 ± 0.1E−3/s”. Moreover, the Kd in test [4] (Table 7, SPR, read-out: KD) came to 102 nM.

As to `CCc1nc2cc3ccccc3cc2cc1C(=O)N1CCC[C@H]1C(=O)N(C)[C@@H](C/C=C/C[C@@H](C(=O)N(C)[C@@H](CCCCN)C(=O)NCCCN)N(C)C(=O)[C@@H]1CCCN1C(=O)c1cc2cc3ccccc3cc2nc1CC)C(=O)N(C)[C@@H](CCCCN)C(=O)NCCCN` [22 (E)], in test [5], the ka result is recorded as “ka = 1.9 ± 0.4E+4/M * s” and the kd result was “kd = 8 ± 4E−4/s”. Also, in test [4] (Table 7, SPR), the ka entry is “bka = 1.2 ± 0.3E+4/M * s” and the kd entry is on record as “kd = 8.7 ± 0.3E−4/s”. Further, in test [4] (Table 7, SPR, read-out: KD), the Kd came to 72 nM.

With `CCc1nc2cc3ccccc3cc2cc1C(=O)N1CCC[C@H]1C(=O)N(C)[C@@H](C/C=C\C[C@@H](C(=O)N(C)[C@@H](CCCCN)C(=O)NCCCN)N(C)C(=O)[C@@H]1CCCN1C(=O)c1cc2cc3ccccc3cc2nc1CC)C(=O)N(C)[C@@H](CCCCN)C(=O)NCCCN` [22 (Z)], in test [4] (Table 7, SPR), the ka result is “ka = 9.2 ± 0.4E+3/M * s” and the kd result was “kd = 3 ± 2E−3/s”. Also, the Kd in test [4] (Table 7, SPR, read-out: KD) came out at 378 nM.

As for `CCc1nc2cc3ccccc3cc2cc1C(=O)N[C@@H](C/C=C\C[C@H](NC(=O)c1cc2cc3ccccc3cc2nc1CC)C(=O)N1CCC[C@H]1C(=O)N[C@@H](Cc1ccccc1)C(=O)NCCCN)C(=O)N1CCC[C@H]1C(=O)N[C@@H](Cc1ccccc1)C(=O)NCCCN` [Compound 19], the Kd in test [3] (SPR, read-out: apparent KD) was 102 ± 0.021 nM.

As for `CCc1nc2cc3ccccc3cc2cc1C(=O)N1CCC[C@H]1C(=O)N[C@@H](C/C=C/C[C@H](NC(=O)[C@@H]1CCCN1C(=O)c1cc2cc3ccccc3cc2nc1CC)C(=O)N(C)[C@@H](CCCCN)C(=O)NCCCN)C(=O)N(C)[C@@H](CCCCN)C(=O)NCCCN` [20 (E)], in test [4] (Table 7, SPR), the ka entry is recorded as “ka = 1.8 ± 0.9E+4/M * s” and the kd result is recorded as “kd = 1.4 ± 0.6E−3/s”. Besides, the Kd in test [4] (Table 7, SPR, read-out: KD) came to 83 nM.

`CCc1nc2cc3ccccc3cc2cc1C(=O)N[C@@H](CCCCN)C(=O)N[C@@H](C/C=C\C[C@H](NC(=O)[C@H](CCCCN)NC(=O)c1cc2cc3ccccc3cc2nc1CC)C(=O)N1CCC[C@H]1C(=O)NCCCN)C(=O)N1CCC[C@H]1C(=O)NCCCN` [Compound 8]: the “Residence time” value amounted to 152.98 s in test [1], 116.86 s in test [2], 255.72 s in test [6] and 228.71 s in test [4]. Further, the “Off-rates (koff)” value in test [1] (SPR) stood at 0.00453 s⁻¹; in test [2] it was 0.00593 s⁻¹; in test [6] (SPR) it was 0.00271 s⁻¹; in test [4] (SPR), 0.00303 s⁻¹. For the same compound, the “On-rates (kon)” value was 15400 M⁻¹ s⁻¹ in test [1] (SPR), 12600 M⁻¹ s⁻¹ in test [2], 29000 M⁻¹ s⁻¹ in test [6] (SPR) and 24600 M⁻¹ s⁻¹ in test [4] (SPR). In test [4] (SPR), the “apparent KD” value is “reduced affinity”. The sequence selectivity result in test [4] (SPR) was “no selectivity for CUG or CCUG repeats relative to duplex CUG-CAG or HIV-1 FSS RNAs”.

On to Neomycin [reference compound], for which the results for the “Residence time” value in test [1] and in test [4] were 3.55 s and 13.70 s, respectively. For the same compound, the “Off-rates (koff)” value in test [1] (SPR) was 0.195 s⁻¹; in test [4] (SPR) it was 0.0507 s⁻¹. The “On-rates (kon)” value in test [1] (SPR) is 109000 M⁻¹ s⁻¹; in test [4] (SPR), 125000 M⁻¹ s⁻¹. In addition, the Kd in test [1] (SPR, (CCUG)10, running text, read-out: apparent KD) turned out to be 1960 ± 714 nM; in test [4] (SPR, read-out: apparent KD), 409.6 ± 0.89 nM.
